Test results from publication PMC12332266 (Frontiers in Pharmacology, 2025).
Entries after “also recorded” stand apart in the source; their conditions may differ. Like-named read-outs stand apart in the source and are kept apart here.

Legend:
[1] = system: hiPSC-CM (iCell Cardiomyocytes^2); assay: Intracellular miRNA expression by RT-qPCR in hiPSC-CM pellets after 72-hour treatment; settings: for fold induction at 0.1 µM / fold induction at 0.3 µM / fold induction at 3 µM / fold induction at 10 µM: Homo sapiens
Procedure, shortened: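 After 72-hour treatment and RTCA CardioECR assessment, total RNA from hiPSC-CM pellets was reverse transcribed, pre-amplified and quantified by TaqMan RT-qPCR against a 17-miRNA panel. Triplicates were pooled, so no statistical analysis was performed.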

[2] = system: hiPSC-CM (iCell Cardiomyocytes^2); assay: RTCA CardioECR assessment (impedance and electrophysiology parameters)
Procedure, shortened: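 iCell^2 cardiomyocytes on fibronectin-coated ePlates monitored continuously by impedance for cell index, beating rate and amplitude. Field potential duration and spike amplitude were recorded from day 4–6 after monolayer formation. Data were double-normalized to DMSO control and baseline, with variability given as SD.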

[3] = system: hiPSC-CM (iCell Cardiomyocytes^2); assay: miRNA in hiPSC-CM culture media by RT-qPCR at 24, 48 and 72 h post-treatment;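 further: medium RNA quantified by RT-qPCR, CT-values normalized to housekeeping miRNAs, compared against DMSO control, doses chosen from the MEC for CI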
Protocol: (§1) To extract total RNA from the culture media, hiPSC-CM were plated on 24-well plates by seeding 275,000 cells per mL per well. hiPSC-CM were maintained for 7 days in 200 µL of iCell^2 Maintenance Medium (iCell^2 MM; FCDI) for the 48-well ePlate and in 1 mL for 24-well plate, before drug treatment. Culture media change was performed every 2 days.
(§2) Stock solutions were diluted 1:1000 in iCell^2 MM before treatment and equilibrated at 37°C. As vehicle control, DMSO 0.1% was added to the media. Drug treatments on biological replicates (n = 3) were refreshed daily, and culture media was collected for further miRNA analysis. After 72 h, cell pellets were collected and stored at −80°C until total RNA extraction.
(§3) hiPSC-CM culture media was collected daily from 24-well plates, and centrifuged (+4°C, 11,000 rpm) for 5 min to remove cellular debris/cells. Total RNA was extracted from 300 µL of supernatant by Trizol/Chloroform phase separation and purification of total RNA by miRNeasy 96 Kit (Qiagen, Hilden, Germany). The spike-in control cel-miR-39 (Qiagen, Hilden, Germany) was used to check the quality of samples and PCR efficiency. DNase treatment (RNase-Free DNase Set (Qiagen, Hilden, Germany)) was applied according to the manufacturer’s instructions. After the RNA extraction, the same RT-qPCR protocol as for hiPSC-CM lysate was followed. Multiple unpaired t-tests were performed to compare delta CT-values (CT-values normalized to the housekeeping miRNAs) of the treatment groups to the DMSO control.
(§4) Analysis of miRNA in the culture media of hiPSC-CM treated with structural cardiotoxicants was performed at 24-, 48- and 72-hour post-treatment. […] The treatment concentrations were selected based on the MEC for CI to ensure that the preliminary evidence of cardiotoxicity in hiPSC-CMs could potentially lead to miRNA release in the culture media.

[4] = ref extensive literature search, cited from earlier work
[5] = system: hiPSC-CM (iCell Cardiomyocytes^2); settings: human
Protocol: as §1, §2, §3, §4

[6] = 72 h, read-out: hsa-miR-7-5p fold change
[7] = 72 h, read-out: hsa-miR-29a-5p fold change
[8] = 72 h, read-out: hsa-miR-126-3p fold change
[9] = 72 h, read-out: hsa-miR-133b fold change
[10] = 72 h, read-out: hsa-miR-146b-5p fold change
[11] = 72 h, read-out: hsa-miR-182-5p fold change
[12] = 72 h, read-out: hsa-miR-185-3p fold change
[13] = 72 h, read-out: hsa-miR-187-3p fold change
[14] = 72 h, read-out: hsa-miR-208b-3p fold change
[15] = 72 h, read-out: hsa-miR-365a-5p fold change

Question: With `COc1cccc2c1C(=O)c1c(O)c3c(c(O)c1C2=O)C[C@@](O)(C(=O)CO)C[C@@H]3O[C@H]1C[C@H](N)[C@H](O)[C@H](C)O1` [Doxorubicin] as the molecule, how does the “intracellular miRNA upregulation in hiPSC-CM, in words” value [1] read?
Answer: The value was “lowest upregulation of miRNAs was detected at the highest concentration tested”.

Question: What about the “miRNAs hiPSC-CM pellet, MEC overall” value [1] of the same molecule?
Answer: Its value is 0.03 µM.

Question: And the “miRNAs upregulated at the MEC overall (hiPSC-CM pellet)” value [1]?
Answer: The value was “miR-34a-5p, miR-146b-5p, miR-187-3p”.

Question: And the “RTCA, MEC (CI)” value ([2]; hiPSC-CM, change ≥20%, Table 2)?
Answer: Its value is 0.1 µM (CI).

Question: And the “Contractility Amplitude MEC” value ([2]; human, 72 h)?
Answer: The value was 0.1 µM.

Question: And the “Spike Amplitude (SA) MEC” value ([2]; human, 72 h)?
Answer: The value was 0.01 µM.

Question: What about the “hsa-miR-133b in culture media, in words” value ([3]; 24, 48, 72 h, doxorubicin 0.1 μM, arsenic trioxide 0.48 μM, milrinone 3 μM, vincristine 0.3 μM, vinblastine 0.3 μM, erlotinib 7.7 μM) of the same molecule?
Answer: The value was “upregulation was detected only after 72 h of treatment; also recorded: significant upregulation was observed only after 72-hour treatment”.

Question: And the “hsa-miR-187-3p in culture media, in words” value ([3]; doxorubicin 0.1 μM, vinblastine 0.3 μM)?
Answer: The value was “detected in the culture media only following 72-hour exposure”.

Question: What about the Cmax total ([4]; Supplementary Table 1) of the same molecule?
Answer: The Cmax total was 1600 nM.

Question: What about the Cmax total ([4]; Table 1) of the same molecule?
Answer: The Cmax total was 1600 nM.

Question: For `Cc1[nH]c(=O)c(C#N)cc1-c1ccncc1` [Milrinone], which “miRNAs hiPSC-CM pellet, MEC overall” value [1] is on record?
Answer: Its value is 0.1 µM.

Question: And the “miRNAs upregulated at the MEC overall (hiPSC-CM pellet)” value [1]?
Answer: The value was “miR-126-3p, miR-133b, miR-146b-5p”.

Question: What about the fold induction at 0.1 µM [1, 6] of the same molecule?
Answer: Its fold induction at 0.1 µM is 1.1.

Question: What about the fold induction at 0.3 µM [1, 6] of the same molecule?
Answer: Its fold induction at 0.3 µM is 1.1.

Question: What about the fold induction at 3 µM [1, 6] of the same molecule?
Answer: Its fold induction at 3 µM is 0.5.

Question: And the fold induction at 10 µM [1, 6]?
Answer: Its fold induction at 10 µM is 1.3.

Question: And the fold induction at 0.1 µM [1, 7]?
Answer: The fold induction at 0.1 µM was 0.6.

Question: And the fold induction at 0.3 µM [1, 7]?
Answer: The fold induction at 0.3 µM was 0.02.

Question: And the fold induction at 10 µM [1, 7]?
Answer: Its fold induction at 10 µM is 0.3.

Question: And the fold induction at 0.1 µM [1, 8]?
Answer: Its fold induction at 0.1 µM is 7.7.

Question: What about the fold induction at 0.3 µM [1, 8] of the same molecule?
Answer: The fold induction at 0.3 µM was 5.9.

Question: And the fold induction at 3 µM [1, 8]?
Answer: Its fold induction at 3 µM is 0.4.

Question: And the fold induction at 10 µM [1, 8]?
Answer: Its fold induction at 10 µM is 1.7.

Question: What about the fold induction at 0.1 µM [1, 9] of the same molecule?
Answer: Its fold induction at 0.1 µM is 2.2.

Question: What about the fold induction at 0.3 µM [1, 9] of the same molecule?
Answer: The fold induction at 0.3 µM was 2.6.

Question: What about the fold induction at 3 µM [1, 9] of the same molecule?
Answer: Its fold induction at 3 µM is 3.5.

Question: What about the fold induction at 10 µM [1, 9] of the same molecule?
Answer: Its fold induction at 10 µM is 2.5.

Question: And the fold induction at 0.1 µM [1, 10]?
Answer: The fold induction at 0.1 µM was 3.6.

Question: And the fold induction at 0.3 µM [1, 10]?
Answer: The fold induction at 0.3 µM was 19.

Question: What about the fold induction at 3 µM [1, 10] of the same molecule?
Answer: The fold induction at 3 µM was 5.

Question: What about the fold induction at 10 µM [1, 10] of the same molecule?
Answer: Its fold induction at 10 µM is 3.

Question: What about the fold induction at 0.1 µM [1, 11] of the same molecule?
Answer: Its fold induction at 0.1 µM is 1.9.

Question: What about the fold induction at 0.3 µM [1, 11] of the same molecule?
Answer: The fold induction at 0.3 µM was 1.6.

Question: And the fold induction at 3 µM [1, 11]?
Answer: Its fold induction at 3 µM is 0.9.

Question: And the fold induction at 10 µM [1, 11]?
Answer: The fold induction at 10 µM was 1.3.

Question: And the fold induction at 0.3 µM [1, 12]?
Answer: The fold induction at 0.3 µM was 0.2.

Question: What about the fold induction at 3 µM [1, 12] of the same molecule?
Answer: Its fold induction at 3 µM is 16.3.

Question: What about the fold induction at 10 µM [1, 12] of the same molecule?
Answer: Its fold induction at 10 µM is 0.9.

Question: And the fold induction at 0.3 µM [1, 13]?
Answer: Its fold induction at 0.3 µM is 3.7.

Question: What about the fold induction at 3 µM [1, 13] of the same molecule?
Answer: The fold induction at 3 µM was 1.2.

Question: And the fold induction at 10 µM [1, 13]?
Answer: The fold induction at 10 µM was 3.3.

Question: And the fold induction at 0.1 µM [1, 14]?
Answer: The fold induction at 0.1 µM was 1.3.

Question: And the fold induction at 0.3 µM [1, 14]?
Answer: Its fold induction at 0.3 µM is 1.8.

Question: And the fold induction at 3 µM [1, 14]?
Answer: The fold induction at 3 µM was 2.1.

Question: What about the fold induction at 10 µM [1, 14] of the same molecule?
Answer: The fold induction at 10 µM was 2.4.

Question: What about the fold induction at 0.1 µM [1, 15] of the same molecule?
Answer: The fold induction at 0.1 µM was 3.7.

Question: What about the fold induction at 0.3 µM [1, 15] of the same molecule?
Answer: The fold induction at 0.3 µM was 4.9.

Question: And the fold induction at 3 µM [1, 15]?
Answer: Its fold induction at 3 µM is 0.4.

Question: What about the fold induction at 10 µM [1, 15] of the same molecule?
Answer: Its fold induction at 10 µM is 1.1.

Question: And the “hsa-miR-7-5p fold change, intracellular” value ([1]; human, 72 h, 3 µM)?
Answer: Its value is 0.5.

Question: What about the “hsa-miR-182-5p fold change, intracellular” value ([1]; human, 72 h, 3 µM) of the same molecule?
Answer: Its value is 0.9.

Question: What about the “hsa-miR-185-3p fold change, intracellular” value ([1]; human, 72 h, 3 µM) of the same molecule?
Answer: Its value is 16.3.

Question: What about the “hsa-miR-365a-5p fold change, intracellular” value ([1]; human, 72 h, 3 µM) of the same molecule?
Answer: Its value is 0.4.

Question: What about the “Field Potential Duration MEC” value ([2]; human, 72 h) of the same molecule?
Answer: Its value is 0.3 µM.

Question: What about the “Spike Amplitude (SA) MEC” value ([2]; human, 72 h) of the same molecule?
Answer: The value was 0.1 µM.

Question: And the “hsa-miR-126-3p fold change, culture media” value ([3]; 3 µM, 24h)?
Answer: The value was 3.9.

Question: What about the “hsa-miR-208b-3p fold change, culture media” value (from here on “hsa-miR-208b-3p fold change”) ([3]; 3 µM, 24h) of the same molecule?
Answer: The value was 6.0.

Question: And the “hsa-miR-[…] change, culture media” value ([3]; 3 µM, 24h)?
Answer: Its value is 3.5.

Question: What about the “hsa-miR-133b fold change, culture media” value ([3]; 3 µM, 48h) of the same molecule?
Answer: The value was 0.8.

Question: And the “hsa-miR-208b-3p fold change” value ([3]; 3 µM, 48h)?
Answer: The value was 2.8.

Question: And the “hsa-miR-[…] change, culture media” value ([3]; 3 µM, 48h)?
Answer: The value was 1.4.

Question: What about the “hsa-miR-7-5p fold change, culture media” value ([3]; 3 µM, 72 h) of the same molecule?
Answer: The value was 9.1.

Question: And the “hsa-miR-126-3p fold change, culture media” value ([3]; 3 µM, 72 h)?
Answer: The value was 2.5.

Question: What about the “hsa-miR-133b fold change, culture media” value ([3]; 3 µM, 72 h) of the same molecule?
Answer: The value was 2.5.

Question: And the “hsa-miR-208b-3p fold change” value ([3]; 3 µM, 72 h)?
Answer: The value was 0.6.

Question: What about the “hsa-miR-[…] change, culture media” value ([3]; 3 µM, 72 h) of the same molecule?
Answer: Its value is 4.4.

Question: And the “miRNAs in culture media of hiPSC-CM, in words” value [5]?
Answer: The value was “hsa-miR-7-5p and hsa-miR-126-3p, were upregulated after 72-hour exposure”.

Question: And the “miRNAs in culture media of hiPSC-CM, in words” value ([5]; 3 µM)?
Answer: The value was “for hsa-miR-126-3p, upregulation was also observed after 24-hour treatment”.

Question: And the Cmax total ([4]; Supplementary Table 1)?
Answer: Its Cmax total is 620 to 1180 nM.

Question: And the Cmax total ([4]; Table 1)?
Answer: The Cmax total was 620 to 1180 nM.
